In US8192962B2, “Processes for detecting toxic substances” (Daikin Industries, Ltd., priority 2001, dated 2012):

System: Transport facilitation protein genes
Assay: DNA chip mRNA expression in yeast, transport facilitation protein genes (Table 5)
Format: cell-based, Saccharomyces cerevisiae S288C
Procedure: Yeast (Saccharomyces cerevisiae S288C (α SUC2mal mel gap2 CUP1)) were incubated at 25° C. on YPD medium (yeast extract 1%, polypepton 2%, glucose 2%). One of toxic chemical substances was added to the cells at logarithmic growth phase, and the cells were further incubated for two hours. Cells were cultured without any chemical substance in the same condition, and were used as control. Concentrations of the chemical substances were defined to inhibit the growth of the yeast but not lead to death.
After completion of the incubation, the culture was centrifuged to collect the cells. To the cells, sodium acetate buffer (50 mM sodium acetate, 10 mM EDTA, 1% SDS) was added, and the mixture was shaken at 65° C. for five minutes, followed by returning to room temperature, and obtaining the supernatant, of which the procedures were repeated two times. To the supernatant, ½ amount of a solution of phenol/chloroform was added, and the mixture was centrifuged to give a supernatant, which was added with an equal amount of chloroform, and the mixture was centrifuged to give a supernatant. To the supernatant, an equal amount of isopropanol containing 0.3 M sodium acetate was added, and the mixture was allowed to stand at room temperature for 30 minutes, after which the mixture was centrifuged to give a sediment of the whole RNAs. Seventy % ethanol was added to the sediment, and the mixture was again centrifuged to give a sediment, which was then dried and dissolved in water. mRNA was isolated from the whole RNAs as followings. In view of the fact that a poly A chain is attached to the 3′ terminus of mRNA, a polynucleotide having a poly T structure which was immobilized on the surface of latex beads was used to trap the mRNA, and then the mRNA was washed and eluted with spine column (Oligotex-dT30<Super>mRNA Purification Kit, Takara). Reverse transcription of the mRNA was conducted with a reverse transcriptase (Super Script II Reverse Transcriptase; catalogue No. 18064-014, GibcoBRL) using fluorescence-labeled nucleotides to give cDNAs that were introduced with Cy3-dUTP or Cy5-dUTP during the reverse transcription.
The labeled cDNAs were dissolved in TE buffer (10mM Tris-HCl/1 mM EDTA, pH8.0), and the solution was dropped on the DNA chip containing the whole genes of yeast (DNA Chip Research Inc. Japan) so that the cDNAs were hybridized on the DNA chip at 65° C. for over 12 hours. The fluoresces intensity of the DNA chip was read with a scanner, and the ratio relative to the fluorescence intensity resulting from the absence of chemical substance was estimated as the following, which is shown in Tables 1 to 9: […]

CN(C)C(=S)SSC(=S)N(C)C [(10), Tetramethylthiuram disulfide]
The level of expressed mRNA in the presence of chemical substance/The level of expressed mRNA in the absence of chemical substance (yeast gene YGR281W): 1.4 | The level of expressed mRNA in the presence of chemical substance/The level of expressed mRNA in the absence of chemical substance (yeast gene YHL035C): 4.6 | The level of expressed mRNA in the presence of chemical substance/The level of expressed mRNA in the absence of chemical substance (yeast gene YHL036W): 4.4 | The level of expressed mRNA in the presence of chemical substance/The level of expressed mRNA in the absence of chemical substance (yeast gene YHL040C): 11.3 | The level of expressed mRNA in the presence of chemical substance/The level of expressed mRNA in the absence of chemical substance (yeast gene YHL047C): 11.9 | The level of expressed mRNA in the presence of chemical substance/The level of expressed mRNA in the absence of chemical substance (yeast gene YHR026W): 0.9 | The level of expressed mRNA in the presence of chemical substance/The level of expressed mRNA in the absence of chemical substance (yeast gene YHR092C): 0.9 | The level of expressed mRNA in the presence of chemical substance/The level of expressed mRNA in the absence of chemical substance (yeast gene YHR094C): 1.2 | The level of expressed mRNA in the presence of chemical substance/The level of expressed mRNA in the absence of chemical substance (yeast gene YHR175W): 2.0 | The level of expressed mRNA in the presence of chemical substance/The level of expressed mRNA in the absence of chemical substance (yeast gene YIL006W): 1.1 | The level of expressed mRNA in the presence of chemical substance/The level of expressed mRNA in the absence of chemical substance (yeast gene YIL022W): 1.3 | The level of expressed mRNA in the presence of chemical substance/The level of expressed mRNA in the absence of chemical substance (yeast gene YIL056W): 1.6 | The level of expressed mRNA in the presence of chemical substance/The level of expressed mRNA in the absence of chemical substance (yeast gene YIL088C): 1.7 | The level of expressed mRNA in the presence of chemical substance/The level of expressed mRNA in the absence of chemical substance (yeast gene YJL034W): 1.1 | The level of expressed mRNA in the presence of chemical substance/The level of expressed mRNA in the absence of chemical substance (yeast gene YJL212C): 1.3 | The level of expressed mRNA in the presence of chemical substance/The level of expressed mRNA in the absence of chemical substance (yeast gene YJL219W): 2.3 | The level of expressed mRNA in the presence of chemical substance/The level of expressed mRNA in the absence of chemical substance (yeast gene YJR077C): 0.7 | The level of expressed mRNA in the presence of chemical substance/The level of expressed mRNA in the absence of chemical substance (yeast gene YJR106W): 1.6 | The level of expressed mRNA in the presence of chemical substance/The level of expressed mRNA in the absence of chemical substance (yeast gene YJR121W): 1.3 | The level of expressed mRNA in the presence of chemical substance/The level of expressed mRNA in the absence of chemical substance (yeast gene YKL016C): 1.8 | The level of expressed mRNA in the presence of chemical substance/The level of expressed mRNA in the absence of chemical substance (yeast gene YKL146W): 2.8 | The level of expressed mRNA in the presence of chemical substance/The level of expressed mRNA in the absence of chemical substance (yeast gene YKL188C): 2.8 | The level of expressed mRNA in the presence of chemical substance/The level of expressed mRNA in the absence of chemical substance (yeast gene YKR039W): 2.0 | The level of expressed mRNA in the presence of chemical substance/The level of expressed mRNA in the absence of chemical substance (yeast gene YKR067W): 2.3 | The level of expressed mRNA in the presence of chemical substance/The level of expressed mRNA in the absence of chemical substance (yeast gene YLL028W): 2.3 | The level of expressed mRNA in the presence of chemical substance/The level of expressed mRNA in the absence of chemical substance (yeast gene YLL055W): 14.0 | The level of expressed mRNA in the presence of chemical substance/The level of expressed mRNA in the absence of chemical substance (yeast gene YLR081W): 2.2 | The level of expressed mRNA in the presence of chemical substance/The level of expressed mRNA in the absence of chemical substance (yeast gene YLR295C): 1.2 | The level of expressed mRNA in the presence of chemical substance/The level of expressed mRNA in the absence of chemical substance (yeast gene YLR348C): 1.3 | The level of expressed mRNA in the presence of chemical substance/The level of expressed mRNA in the absence of chemical substance (yeast gene YLR378C): 0.7 | The level of expressed mRNA in the presence of chemical substance/The level of expressed mRNA in the absence of chemical substance (yeast gene YMR011W): 0.7 | The level of expressed mRNA in the presence of chemical substance/The level of expressed mRNA in the absence of chemical substance (yeast gene YMR058W): 1.4 | The level of expressed mRNA in the presence of chemical substance/The level of expressed mRNA in the absence of chemical substance (yeast gene YMR162C): 1.0 | The level of expressed mRNA in the presence of chemical substance/The level of expressed mRNA in the absence of chemical substance (yeast gene YMR203W): 1.2 | The level of expressed mRNA in the presence of chemical substance/The level of expressed mRNA in the absence of chemical substance (yeast gene YNL055C): 1.0 | The level of expressed mRNA in the presence of chemical substance/The level of expressed mRNA in the absence of chemical substance (yeast gene YNL259C): 2.1 | The level of expressed mRNA in the presence of chemical substance/The level of expressed mRNA in the absence of chemical substance (yeast gene YNR072W): 1.8 | The level of expressed mRNA in the presence of chemical substance/The level of expressed mRNA in the absence of chemical substance (yeast gene YOL119C): 7.4 | The level of expressed mRNA in the presence of chemical substance/The level of expressed mRNA in the absence of chemical substance (yeast gene YOL156W): 2.1 | The level of expressed mRNA in the presence of chemical substance/The level of expressed mRNA in the absence of chemical substance (yeast gene YOL163W): 6.2 | The level of expressed mRNA in the presence of chemical substance/The level of expressed mRNA in the absence of chemical substance (yeast gene YOR035C): 1.7 | The level of expressed mRNA in the presence of chemical substance/The level of expressed mRNA in the absence of chemical substance (yeast gene YOR130C): 1.7 | The level of expressed mRNA in the presence of chemical substance/The level of expressed mRNA in the absence of chemical substance (yeast gene YOR153W): 1.2 | The level of expressed mRNA in the presence of chemical substance/The level of expressed mRNA in the absence of chemical substance (yeast gene YOR270C): 0.9 | The level of expressed mRNA in the presence of chemical substance/The level of expressed mRNA in the absence of chemical substance (yeast gene YOR273C): 0.5 | The level of expressed mRNA in the presence of chemical substance/The level of expressed mRNA in the absence of chemical substance (yeast gene YOR316C): 2.0 | The level of expressed mRNA in the presence of chemical substance/The level of expressed mRNA in the absence of chemical substance (yeast gene YOR332W): 1.1 | The level of expressed mRNA in the presence of chemical substance/The level of expressed mRNA in the absence of chemical substance (yeast gene YOR348C): 0.4 | The level of expressed mRNA in the presence of chemical substance/The level of expressed mRNA in the absence of chemical substance (yeast gene YPL036W): 0.3 | The level of expressed mRNA in the presence of chemical substance/The level of expressed mRNA in the absence of chemical substance (yeast gene YPL134C): 0.8 | The level of expressed mRNA in the presence of chemical substance/The level of expressed mRNA in the absence of chemical substance (yeast gene YPL265W): 1.2 | The level of expressed mRNA in the presence of chemical substance/The level of expressed mRNA in the absence of chemical substance (yeast gene YPL271W): 1.2 | The level of expressed mRNA in the presence of chemical substance/The level of expressed mRNA in the absence of chemical substance (yeast gene YPR124W): 1.5 | The level of expressed mRNA in the presence of chemical substance/The level of expressed mRNA in the absence of chemical substance (yeast gene YPR192W): 1.3 | The level of expressed mRNA in the presence of chemical substance/The level of expressed mRNA in the absence of chemical substance (yeast gene YPR194C): 0.6
